ChEMBL document CHEMBL1140802 (Bioorg Med Chem Lett, 2008)

experiment: Blockade of CNGA1/CNGB1 expressed in Xenopus oocyte by electrophysiological method

Kd [µM]	SMILES
1.6	CCCCCCCCNc1ccc(C(=O)OCC[N+](C)(C)CC)cc1
1.1	CCCCNc1ccc(C(=O)OCCN(CCCC)CCCC)cc1
5	CCCCNc1ccc(C(=O)OCCCN(C)C)cc1
7.1	CCCCNc1ccc(C(=O)OCCCCN(C)C)cc1
1.3	CCCCCCCCNc1ccc(C(=O)OCCN(C)C)cc1
17	CN(C)CCOC(=O)c1ccc(NC2CCCCC2)cc1
16	CN(C)CCOC(=O)c1ccc(NCc2ccccc2)cc1
20	CC(C)CNc1ccc(C(=O)OCCN(C)C)cc1
5.6	CCCCNc1ccc(C(=O)OCCCN(CC)CC)cc1
1.3	CCCCNc1ccc(C(=O)OCCCN(CCCC)CCCC)cc1
1.3	CCCCNc1ccc(C(=O)OCCCCN(CCCC)CCCC)cc1
3.8	CCCCCCNc1ccc(C(=O)OCCN(C)C)cc1
8.5	CCCCNc1ccc(C(=O)OCCN(CC)CC)cc1 [P-BUTYLAMINOBENZOYLDIETHYLAMINOETHYL]
